Assay results published in paper PMC9668928, “Zandelisib (ME-401) in Japanese patients with relapsed or refractory indolent non-Hodgkin’s lymphoma: an open-label, multicenter, dose-escalation phase 1 study” (International Journal of Hematology, 2022).

Test system: Japanese patients with R/R iNHL
Assay: Phase 1 dose-escalation study: safety and tolerability (TEAEs, DLTs)
Assay type: in vivo
Description: Japanese patients aged ≥ 20 years with R/R iNHL histologically confirmed as FL, nodal MZL, extra-nodal MZL of mucosa-associated lymphoid tissue, small lymphocytic lymphoma, lymphoplasmacytic lymphoma, Waldenström’s macroglobulinemia, or equivalent, according to World Health Organization classification, were eligible for this study. Other key eligibility criteria included being PI3K inhibitor therapy-naïve and an Eastern Cooperative Oncology Group performance status of 0 or 1. Further details of inclusion and exclusion criteria are provided in Supplementary Table 1.
This was a multicenter, open-label, dose-escalation, phase 1 study in Japan. All patients received oral zandelisib once daily at the same time each day, at least 1 h before or 2 h after a meal (CS: continuous schedule). Each treatment cycle was 28 days. Definitions of the DLTs described in this study can be found in Supplementary Table 2. The observation period for DLTs was from day 1 of Cycle 1 to day 1 of Cycle 2. Zandelisib was administered until disease progression or unacceptable toxicity. In the event of an AE, patients could be switched to IDT. In the case of disease progression while receiving IDT, patients could be switched back to CS per the investigator’s discretion.
A starting dose of 45 mg was set for investigating patient safety. This study adopted a standard 3 + 3 design. […] If DLTs occurred in 2 or more patients, the study was planned to be suspended pending a safety evaluation. If a DLT occurred in 1 patient, 3 further patients were added to cohort 1. If DLTs occurred in 0/3 or 1/6 patients in cohort 1, dosing in cohort 2 commenced (n = 6; 60 mg/day). If the incidence of DLTs in cohort 2 was ≤ 1/6, the maximum tolerated dose was not determined, and the dose in cohort 2 was to be selected as the recommended Japanese phase 2 dose.
The primary endpoint was the safety [number of patients with treatment-emergent adverse events (TEAEs), based on Common Terminology Criteria for Adverse Events version 5.0] and tolerability (including laboratory values, vital signs, and electrocardiogram performance) of zandelisib in Japanese patients. Hepatobiliary disorder, aspartate/alanine (AST/ALT) increased, diarrhea/colitis, organizing pneumonia, stomatitis, or rash were defined as irAEs in this manuscript. Secondary endpoints included PK (plasma concentrations and PK parameters) and the efficacy of zandelisib. […] The PK parameters for Cycle 1 day 1 and Cycle 2 day 1 were calculated for each patient by non-compartmental analysis. PK parameters included maximum plasma drug concentration (Cmax), area under the plasma concentration–time curve (AUC) from time zero to the last measurable point (AUC0–t), the AUC from time zero to infinity (AUC0-inf), and terminal half-life (t1/2).

Structure (SMILES): CN1CCC(c2ccccc2CC(C)(C)Nc2nc(N3CCOCC3)nc(-n3c(C(F)F)nc4ccccc43)n2)CC1 [zandelisib]
- TEAE Oropharyngeal pain, Grade ≥ 3 (45 mg, n = 3): 0 n (%)
- TEAE Pancreatitis, All grades (45 mg, n = 3): 1 (33.3) n (%)
- TEAE Pancreatitis, Grade ≥ 3 (45 mg, n = 3): 1 (33.3) n (%)
- TEAE Pharyngeal paresthesia, All grades (45 mg, n = 3): 0 n (%)
- TEAE Pharyngeal paresthesia, Grade ≥ 3 (45 mg, n = 3): 0 n (%)
- TEAE Pruritus, All grades (45 mg, n = 3): 0 n (%)
- TEAE Pruritus, Grade ≥ 3 (45 mg, n = 3): 0 n (%)
- TEAE Psychiatric disorders (SOC), All grades (45 mg, n = 3): 1 (33.3) n (%)
- TEAE Psychiatric disorders (SOC), Grade ≥ 3 (45 mg, n = 3): 0 n (%)
- TEAE Rash maculopapular, All grades (45 mg, n = 3): 1 (33.3) n (%)
- TEAE Rash maculopapular, Grade ≥ 3 (45 mg, n = 3): 0 n (%)
- TEAE Rash, All grades (45 mg, n = 3): 1 (33.3) n (%)
- TEAE Rash, Grade ≥ 3 (45 mg, n = 3): 0 n (%)
- TEAE Renal and urinary disorders (SOC), All grades (45 mg, n = 3): 1 (33.3) n (%)
- TEAE Renal and urinary disorders (SOC), Grade ≥ 3 (45 mg, n = 3): 0 n (%)
- TEAE Renal impairment, All grades (45 mg, n = 3): 1 (33.3) n (%)
- TEAE Renal impairment, Grade ≥ 3 (45 mg, n = 3): 0 n (%)
- TEAE Respiratory, thoracic, and mediastinal disorders (SOC), All grades (45 mg, n = 3): 1 (33.3) n (%)
- TEAE Respiratory, thoracic, and mediastinal disorders (SOC), Grade ≥ 3 (45 mg, n = 3): 1 (33.3) n (%)
- TEAE Skin and subcutaneous tissue disorders (SOC), All grades (45 mg, n = 3): 3 (100.0) n (%)
- TEAE Skin and subcutaneous tissue disorders (SOC), Grade ≥ 3 (45 mg, n = 3): 0 n (%)
- TEAE Stomatitis, All grades (45 mg, n = 3): 1 (33.3) n (%)
- TEAE Stomatitis, Grade ≥ 3 (45 mg, n = 3): 1 (33.3) n (%)
- TEAE Subcutaneous abscess, All grades (45 mg, n = 3): 0 n (%)
- TEAE Subcutaneous abscess, Grade ≥ 3 (45 mg, n = 3): 0 n (%)
- TEAE Tinnitus, All grades (45 mg, n = 3): 1 (33.3) n (%)
- TEAE Tinnitus, Grade ≥ 3 (45 mg, n = 3): 0 n (%)
- TEAE Urticaria, All grades (45 mg, n = 3): 1 (33.3) n (%)
- TEAE Urticaria, Grade ≥ 3 (45 mg, n = 3): 0 n (%)
- TEAE Vomiting, All grades (45 mg, n = 3): 0 n (%)
- TEAE Vomiting, Grade ≥ 3 (45 mg, n = 3): 0 n (%)
- TEAE WBC count decreased, All grades (45 mg, n = 3): 2 (66.7) n (%)
- TEAE WBC count decreased, Grade ≥ 3 (45 mg, n = 3): 0 n (%)
- Grade 3 irAEs (60 mg): 5 patients
- TEAE ALT increased, All grades (60 mg, n = 6): 1 (16.7) n (%)
- TEAE ALT increased, Grade ≥ 3 (60 mg, n = 6): 0 n (%)
- TEAE AST increased, All grades (60 mg, n = 6): 3 (50.0) n (%)
- TEAE AST increased, Grade ≥ 3 (60 mg, n = 6): 0 n (%)
- TEAE Abdominal discomfort, All grades (60 mg, n = 6): 1 (16.7) n (%)
- TEAE Abdominal discomfort, Grade ≥ 3 (60 mg, n = 6): 0 n (%)
- TEAE Abdominal pain upper, All grades (60 mg, n = 6): 0 n (%)
- TEAE Abdominal pain upper, Grade ≥ 3 (60 mg, n = 6): 0 n (%)
- TEAE Amylase increased, All grades (60 mg, n = 6): 0 n (%)
- TEAE Amylase increased, Grade ≥ 3 (60 mg, n = 6): 0 n (%)
- TEAE Anemia, All grades (60 mg, n = 6): 0 n (%)
- TEAE Anemia, Grade ≥ 3 (60 mg, n = 6): 0 n (%)
- TEAE Arthralgia, All grades (60 mg, n = 6): 1 (16.7) n (%)
- TEAE Arthralgia, Grade ≥ 3 (60 mg, n = 6): 0 n (%)
- TEAE Back pain, All grades (60 mg, n = 6): 0 n (%)
- TEAE Back pain, Grade ≥ 3 (60 mg, n = 6): 0 n (%)
- TEAE Blepharitis, All grades (60 mg, n = 6): 1 (16.7) n (%)
- TEAE Blepharitis, Grade ≥ 3 (60 mg, n = 6): 0 n (%)
- TEAE Blood and lymphatic system disorders (SOC), All grades (60 mg, n = 6): 0 n (%)
- TEAE Blood and lymphatic system disorders (SOC), Grade ≥ 3 (60 mg, n = 6): 0 n (%)
- TEAE Blood creatinine increased, All grades (60 mg, n = 6): 1 (16.7) n (%)
- TEAE Blood creatinine increased, Grade ≥ 3 (60 mg, n = 6): 0 n (%)
- TEAE Bradycardia, All grades (60 mg, n = 6): 0 n (%)
- TEAE Bradycardia, Grade ≥ 3 (60 mg, n = 6): 0 n (%)
- TEAE CMV test positive, All grades (60 mg, n = 6): 2 (33.3) n (%)
- TEAE CMV test positive, Grade ≥ 3 (60 mg, n = 6): 0 n (%)
- TEAE Cardiac disorders (SOC), All grades (60 mg, n = 6): 0 n (%)
- TEAE Cardiac disorders (SOC), Grade ≥ 3 (60 mg, n = 6): 0 n (%)
- TEAE Conjunctivitis, All grades (60 mg, n = 6): 1 (16.7) n (%)
- TEAE Conjunctivitis, Grade ≥ 3 (60 mg, n = 6): 0 n (%)
- TEAE Constipation, All grades (60 mg, n = 6): 2 (33.3) n (%)
- TEAE Constipation, Grade ≥ 3 (60 mg, n = 6): 0 n (%)
- TEAE Cough, All grades (60 mg, n = 6): 1 (16.7) n (%)
- TEAE Cough, Grade ≥ 3 (60 mg, n = 6): 0 n (%)
- TEAE Decreased appetite, All grades (60 mg, n = 6): 0 n (%)
- TEAE Decreased appetite, Grade ≥ 3 (60 mg, n = 6): 0 n (%)
- TEAE Diarrhea, All grades (60 mg, n = 6): 2 (33.3) n (%)
- TEAE Diarrhea, Grade ≥ 3 (60 mg, n = 6): 2 (33.3) n (%)
- TEAE Drug hypersensitivity, All grades (60 mg, n = 6): 1 (16.7) n (%)
- TEAE Drug hypersensitivity, Grade ≥ 3 (60 mg, n = 6): 0 n (%)
- TEAE Drug-induced liver injury, All grades (60 mg, n = 6): 1 (16.7) n (%)
- TEAE Drug-induced liver injury, Grade ≥ 3 (60 mg, n = 6): 1 (16.7) n (%)
- TEAE Dry eye, All grades (60 mg, n = 6): 0 n (%)
- TEAE Dry eye, Grade ≥ 3 (60 mg, n = 6): 0 n (%)
- TEAE Dry skin, All grades (60 mg, n = 6): 1 (16.7) n (%)
- TEAE Dry skin, Grade ≥ 3 (60 mg, n = 6): 0 n (%)
- TEAE Dysgeusia, All grades (60 mg, n = 6): 0 n (%)
- TEAE Dysgeusia, Grade ≥ 3 (60 mg, n = 6): 0 n (%)
- TEAE Dyspnea, All grades (60 mg, n = 6): 0 n (%)
- TEAE Dyspnea, Grade ≥ 3 (60 mg, n = 6): 0 n (%)
- TEAE Ear and labyrinth disorders (SOC), All grades (60 mg, n = 6): 0 n (%)
- TEAE Ear and labyrinth disorders (SOC), Grade ≥ 3 (60 mg, n = 6): 0 n (%)
- TEAE Eczema, All grades (60 mg, n = 6): 1 (16.7) n (%)
- TEAE Eczema, Grade ≥ 3 (60 mg, n = 6): 0 n (%)
- TEAE Eosinophil count increased, All grades (60 mg, n = 6): 0 n (%)
- TEAE Eosinophil count increased, Grade ≥ 3 (60 mg, n = 6): 0 n (%)
- TEAE Erythema multiforme, All grades (60 mg, n = 6): 1 (16.7) n (%)
- TEAE Erythema multiforme, Grade ≥ 3 (60 mg, n = 6): 0 n (%)
- TEAE Eye disorders (SOC), All grades (60 mg, n = 6): 1 (16.7) n (%)
- TEAE Eye disorders (SOC), Grade ≥ 3 (60 mg, n = 6): 0 n (%)
- TEAE Flank pain, All grades (60 mg, n = 6): 1 (16.7) n (%)
- TEAE Flank pain, Grade ≥ 3 (60 mg, n = 6): 0 n (%)
- TEAE GGT increased, All grades (60 mg, n = 6): 1 (16.7) n (%)
- TEAE GGT increased, Grade ≥ 3 (60 mg, n = 6): 1 (16.7) n (%)
- TEAE Gastrointestinal disorders (SOC), All grades (60 mg, n = 6): 4 (66.7) n (%)
- TEAE Gastrointestinal disorders (SOC), Grade ≥ 3 (60 mg, n = 6): 2 (33.3) n (%)
- TEAE General disorders and administration site conditions (SOC), All grades (60 mg, n = 6): 0 n (%)
- TEAE General disorders and administration site conditions (SOC), Grade ≥ 3 (60 mg, n = 6): 0 n (%)
- TEAE Hepatic function abnormal, All grades (60 mg, n = 6): 1 (16.7) n (%)
- TEAE Hepatic function abnormal, Grade ≥ 3 (60 mg, n = 6): 1 (16.7) n (%)
- TEAE Hepatobiliary disorders (SOC), All grades (60 mg, n = 6): 2 (33.3) n (%)
- TEAE Hepatobiliary disorders (SOC), Grade ≥ 3 (60 mg, n = 6): 2 (33.3) n (%)
- TEAE Herpes simplex, All grades (60 mg, n = 6): 0 n (%)
- TEAE Herpes simplex, Grade ≥ 3 (60 mg, n = 6): 0 n (%)
- TEAE Herpes zoster, All grades (60 mg, n = 6): 1 (16.7) n (%)
- TEAE Herpes zoster, Grade ≥ 3 (60 mg, n = 6): 0 n (%)
- TEAE Hypoesthesia, All grades (60 mg, n = 6): 0 n (%)
- TEAE Hypoesthesia, Grade ≥ 3 (60 mg, n = 6): 0 n (%)
- TEAE Hypogammaglobulinemia, All grades (60 mg, n = 6): 0 n (%)
- TEAE Hypogammaglobulinemia, Grade ≥ 3 (60 mg, n = 6): 0 n (%)
- TEAE Immune system disorders (SOC), All grades (60 mg, n = 6): 1 (16.7) n (%)
- TEAE Immune system disorders (SOC), Grade ≥ 3 (60 mg, n = 6): 0 n (%)
